Article PMC7915858, “Complementary Effects of Carbamylated and Citrullinated LL37 in Autoimmunity and Inflammation in Systemic Lupus Erythematosus” (International Journal of Molecular Sciences, 2021)

Key:
[1] = test system: native LL37-P1-specific T-cells (HLA-DRB1*1501 tetramer); settings: SLE PBMC culture, tetramers of HLA-DR1, HLA-DR15 or HLA-DRB5; cited from earlier work
From the text: We have performed here similar experiments in SLE patients expressing the HLA-DR15 (HLA-DRB1*1501) and/or the DR16 alleles. Since both HLA-DR15- and HLA-DR16-positive individuals co-express DRB5 [[2 ...

[2] = test system: SLE serum antibody; assay: ELISA for antibody reactivity of SLE sera to carb-/cit-/native LL37 and carb-REV, and its correlation with SLEDAI; format: binding, human; settings: for Antibody reactivity in SLE patients with renal damage versus without renal damage: N=6 with and N=44 without renal damage, Mann-Whitney, Figure S3 panel a P 0.047
Experimental: Anti-native LL37/cit-LL37/carb-LL37 antibodies were measured as described. Briefly, 96-well flat-bottom plates (Non-Binding surface polystyrene, Corning, Glendale, AZ USA) were coated with 2 μg/mL of native LL37, cit-LL37 or carb-LL37 in carbonate buffer (0.1 M NaHCHO3, pH 9) for 2 h (or overnight) and washed four times with PBS plus 0.1% Tween-20. This washing buffer was used for washing at all steps. The blocking buffer containing 2% bovine serum albumin (BSA, Sigma) in PBS was used for at least 1 h (or overnight) to saturate unspecific binding sites. After washing, sera were diluted at various concentrations (usually at 1:100 or 1:200) in PBS + 2% BSA followed by 1 h incubation with a horseradish peroxidase–conjugated (HRP) goat anti-human IgG (Sigma-Aldrich), diluted 1:10,000 in PBS. The color was developed for 5 min with 3,3′,5,5′-tetramethylbenzidine (TMB) substrate (Sigma-Aldrich). The reaction was stopped by adding 50 μL of 2 N H2SO4 and absorbance determined at 450 nm with a reference wavelength of 540 nm. Responses were considered positive when the OD measured exceeded the mean OD values measured in healthy donors’ plasma plus two standard deviations (+2SD), calculated on the HD group values, as described.
Differences between mean values were assessed by Wilcoxon’s matched-pair signed rank test, to compare responses to antigens and control antigens in the same donor. We used Mann-Whitney test for comparison of T-cell and antibody responses between groups of patients and HD. Statistical significance was set at p < 0.05. Correlation analyses were performed by Spearman’s rank-correlation test. Data were analyzed by GraphPad Prism 7.0 or SPSS software.

[3] = test system: human DNA; assay: Binding of peptides to DNA by EMSA; settings: 2% agarose gel
Experimental: Human DNA was extracted from PBMCs, as reported and was fragmented by sonication. Five milligrams of DNA in a volume of 300 μL were fragmented using the Sonics Vibra Cell sonicator (Newtown, CT, USA), with the following settings: 2, 4 and 10 sonication cycles (30 s on, 30 s off, in ice) to obtain DNA fragment sizes between 100 and 1000 bp. The resulting size distribution was controlled by 2% agarose gel electrophoresis.
EMSA was performed by mixing various μM concentrations of LL37 or carb-LL37 or cit-LL37 (or AMP S100A8, as negative control), with appropriate concentration of DNA, which respected the appropriate protein–DNA ratio used in pDC-stimulation assays. DNA alone and the mixtures were run on a 2% agarose gel to evidence the delay in migration of the DNA, due to the binding to the tested proteins. DNA on the gel was visualized by with SYBR Safe DNA gel staining (ThermoFisher Scientific).

[4] = test system: SLE-affected kidney biopsies; assay: Confocal microscopy of SLE renal biopsies; parameters: species or system human; settings: antibody RRB640, lupus nephritis class IV
Experimental: Paraffin-included SLE renal biopsies were obtained from Policlinico Umberto I, Rome, IT. Biopsies were de-paraffinized in xylene (5 min, two times), followed by passages in: absolute ethanol (3 min), 95% ethanol in water (3 min), 80% ethanol in water (3 min), 70% ethanol in water (3 min) and antigen retrieval (5 min at 95 °C in 10 mM sodium citrate, pH 6.0). […] Slides were washed three times for 3 min under agitation with washing buffer and incubated with donkey anti-mouse or anti-rabbit secondary antibody, conjugated with AlexaFluor 647, Alexa Fluor 568 or 594 or AlexaFluor 488 (Abcam, Cambridge, UK) depending on the combinations of markers analyzed (in humidified chamber). Slides were washed again in washing buffer and mounted in Prolong Gold anti-fade media containing a DNA dye (DAPI) (Molecular Probes), before analysis with a confocal microscope, objectives 20× or 40× and 60× in oil immersion. Images were taken by a FV1000 confocal microscope (Olympus, Tokyo, Japan), using a Olympus planapo objective 40× or 60× oil A.N. 1,42. Excitation light was obtained by a Laser Dapi 408 nm for DAPI, an Argon Ion Laser (488 nm) for FITC (Alexa 488), a Diode Laser HeNe (561 nm) for Alexa 568 and a Red Diode Laser (638 nm) for Alexa 647. DAPI emission was recorded from 415 to 485 nm, FITC emission was recorded from 495 to 550 nm, Alexa 568 from 583 to 628 nm and Alexa 647, from 634 to 750 nm.

Substance	Expansion of T-cells specific for both cit-LL37 and native LL37 epitopes [1]	Antibody reactivity in SLE patients with renal damage versus without renal damage ([2]; ELISA)	Correlation of antibody reactivity with SLEDAI ([2]; Spearman)	Concentration at which DNA binding ability is lost [3]	DNA binding ability ([3]; 3-to-5 experiments)	SLE patients showing an antibody response to the antigen ([2]; ELISA, 2 μg/mL coated antigen, sera 1:100 or 1:200, OD 450 nm, positive: OD > mean HD + 2SD, carb-LL37 28 of 45, carb-REV 8 of 47 SLE patients)	SLE serum antibody reactivity (OD) compared to healthy donors ([2]; ELISA, OD, Mann-Whitney's test)	Correlation of anti-carb-LL37 with anti-cit-LL37 antibody reactivity ([2]; Spearman, Figure 2c)	Correlation of anti-carb-LL37 with anti-native LL37 antibody reactivity ([2]; Spearman, Figure 2d left)	Presence in SLE-affected kidney biopsies and co-localization with IgG [4]
LLGDFFR(cit)KSKEKIGKEFKR(cit)IVQR(cit)IKDFLR(cit)NLVPR(cit)TES [cit-LL37, LL37 citrullinated at all five arginine sites]	able to expand T-cells specific for both the cit-LL37 and the native LL37 epitopes	non-significant anti-cit- and anti-native-LL37 antibody increase	both responses also correlated with SLEDAI	–	–	–	–	–	–	–
L*LGDFFRK*SK*EK*IGKEFK*RIVQRIK*DFLRNLVPRTES [carb-LL37]	–	significantly higher anti-carb-LL37 antibody reactivity	A significant correlation was appreciated	3 µM	does not completely abolish the LL37 DNA binding ability	62%	significant SLE serum antibody reactivity	correlated significantly with anti-cit-LL37 antibody reactivity	less but still in a significant manner	present in SLE-affected kidney biopsies and partially co-localizes with immunoglobulin (Ig)-G
